According to patent publication US20230022235A1, “DUAL ANDROGEN RECEPTOR/AKR1C3 INHIBITORS” (The Regents of the University of California, priority 2019, published 2023):
“Also recorded” adds a separate entry of the source.

Columns and labels:
[1] = system: AR-V7; assay: RNAseq of AR-V7 signature genes in C4-2B MDVR cells; assay type: cell-based; settings: 5 μM, vs DMSO control
Protocol: (§1) Next, the effects of the new AR/AKR1C3 inhibitors on AR signaling were studied. […] To further confirm the inhibitory role of the compounds in AR signaling, enzalutamide resistant C4-2B MDVR cells (which have enhanced expression of AR, AR variants, and AKR1C3) were treated with 5 μM compound 1, 5 μM compound 5, or a DMSO control. Total RNA was isolated assessed using RNAseq.

[2] = biological target: T1, AR (Homo sapiens, UniProt P10275, T878A); assay: DHT-stimulated AR nuclear translocation in LNCaP cells (immunofluorescent staining); assay type: cell-based; settings: charcoal stripped FBS
T1 construct: endogenous in cells; host or cells: LNCaP
T1 sequence (P10275 1-920 T878A): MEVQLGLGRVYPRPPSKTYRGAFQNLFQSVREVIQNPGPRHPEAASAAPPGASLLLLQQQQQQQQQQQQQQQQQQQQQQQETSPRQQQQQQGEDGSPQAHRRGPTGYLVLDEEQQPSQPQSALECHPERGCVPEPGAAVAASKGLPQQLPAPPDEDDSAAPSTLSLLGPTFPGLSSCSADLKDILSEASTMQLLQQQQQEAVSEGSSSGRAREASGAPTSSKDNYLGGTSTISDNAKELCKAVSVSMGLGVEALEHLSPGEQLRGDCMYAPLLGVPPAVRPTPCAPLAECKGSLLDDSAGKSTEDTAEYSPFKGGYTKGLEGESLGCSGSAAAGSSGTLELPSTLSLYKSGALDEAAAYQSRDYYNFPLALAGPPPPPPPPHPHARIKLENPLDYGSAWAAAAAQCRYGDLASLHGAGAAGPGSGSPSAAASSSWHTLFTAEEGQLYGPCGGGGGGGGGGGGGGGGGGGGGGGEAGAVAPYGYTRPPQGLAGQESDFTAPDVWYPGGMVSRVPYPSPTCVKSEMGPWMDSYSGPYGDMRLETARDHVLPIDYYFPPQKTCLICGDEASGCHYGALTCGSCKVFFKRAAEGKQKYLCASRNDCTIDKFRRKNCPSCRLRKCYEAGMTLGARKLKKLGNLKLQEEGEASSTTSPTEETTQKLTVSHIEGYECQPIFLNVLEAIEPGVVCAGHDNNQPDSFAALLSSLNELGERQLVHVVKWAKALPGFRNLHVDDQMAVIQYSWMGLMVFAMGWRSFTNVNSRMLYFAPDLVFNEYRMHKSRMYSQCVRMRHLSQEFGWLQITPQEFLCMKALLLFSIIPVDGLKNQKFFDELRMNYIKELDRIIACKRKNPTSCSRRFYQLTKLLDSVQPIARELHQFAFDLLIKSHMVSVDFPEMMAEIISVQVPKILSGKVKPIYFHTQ
Protocol: LNCaP cells cultured in charcoal stripped FBS conditions were treated with DHT and the compounds as indicated. AR expression were visualized by immunofluorescent staining.
as §1

[3] = system: C4-2B MDVR cells; assay: RNAseq of genes associated with cancer cell proliferation and survival in C4-2B MDVR cells; assay type: cell-based; settings: 5 μM, vs DMSO control
Protocol: In addition, the effect of the compounds on the expression of genes involved in cancer was studied. Enzalutamide resistant C4-2B MDVR cells were treated with 5 μM of compound 1, 2, 5, or 8, or DMSO control.

[4] = system: AR; assay: RNAseq of AR signaling genes in C4-2B MDVR cells; assay type: cell-based; settings: 5 μM, vs DMSO control
Protocol: as §1

[5] = system: LuCaP35CR tumors; assay: LuCaP35CR PDX model in castrated SCID mice; assay type: in vivo
Protocol: The LuCaP35CR PDX model was also employed to investigate the effects of compound 1 in vivo. For this model, SCID mice were castrated and implanted with LuCaP35CR tissues. Once tumors were palpable, mice were divided into two groups: control or 20 mg/kg compound 1 administered I.P. 5 days a week for 3 weeks. Tumor volumes were measured twice weekly and mouse weights were monitored. At the end of treatment, tumors and serum were collected for assessment.

[6] = biological target: T2, AKR1C3 (Homo sapiens, UniProt P42330); assay: Ex vivo tumor based AKR1C3 enzyme assay (androstenedione conversion to testosterone); assay type: cell-based; settings: ex vivo tumors, androstenedione 300 nmol/L, testosterone in supernatants
T2 sequence (P42330 1-323): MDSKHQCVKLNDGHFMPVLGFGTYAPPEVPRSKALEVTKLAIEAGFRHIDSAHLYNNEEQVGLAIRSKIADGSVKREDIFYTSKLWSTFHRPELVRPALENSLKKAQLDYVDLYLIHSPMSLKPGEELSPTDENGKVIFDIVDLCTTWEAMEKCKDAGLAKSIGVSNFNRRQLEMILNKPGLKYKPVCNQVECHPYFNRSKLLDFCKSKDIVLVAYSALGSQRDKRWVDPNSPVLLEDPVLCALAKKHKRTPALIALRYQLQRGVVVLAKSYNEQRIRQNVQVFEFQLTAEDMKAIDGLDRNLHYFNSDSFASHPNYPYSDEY
Protocol: AKR1C3 plays a crucial role in the synthesis of testosterone, by catalyzing the conversion of the adrenal androgens dehydroepiandrosterone (DHEA) and androstenedione (AD) into testosterone. To determine the effects of compound 1 on inhibition of AKR1C3 enzymatic activity an ex vivo tumor based AKR1C3 enzyme assay was conducted. LUCaP35CX tumors, which express high levels of AKR1C3, were digested with 0.1% protease and cultured in medium supplemented with 10% heat-inactivated charcoal-dextran-stripped FBS. After overnight incubation, androstenedione (300 nmol/L) was added with or without compound 1. The supernatants were collected to measure testosterone.

[7] = system: C4-2B MDVR cells; assay: Cell number of enzalutamide-resistant C4-2B MDVR cells; assay type: cell-based; settings: 48 hrs
Protocol: C4-2B MDVR cells were treated with increasing doses of compound 1 for 48 hrs.
To evaluate whether compound 1 is an effective inhibitor of anti-androgen resistant cell growth, a series of resistant cells were treated with their respective anti-androgens for 48 hrs. Enzalutamide resistant MDVR cells, abiraterone resistant AbiR cells, apalutamide resistant ApaIR cells, and darolutamide resistant DaroR cells were treated with their respective anti-androgens: enza (20 μM), abi (20 μM), apal (20 μM), darolutamide (20 μM), or compound 1 (5 μM).

[8] = system: VCaP tumors; assay: VCaP tumor model in intact SCID mice; assay type: in vivo; settings: 20 mg/kg I.P. 5 days a week for 3 weeks
Protocol: Next the effects of compound 1 in vivo were studied in two separate models. First, intact SCID mice were injected with resistant prostate cancer VCaP cells suspended in matrigel. Once tumors were palpable, mice were divided into two groups: control or 20 mg/kg compound 1 administered I.P. 5 days a week for 3 weeks. Tumor volumes were measured twice weekly and mouse weights were monitored. At the end of treatment, tumors and serum were collected for assessment.

[9] = biological target: T2, AKR1C3; assay: Aldo-Keto Reductase (AKR) Activity Assay Kit (Colorimetric) in LNCaP-AKR1C3 cells; assay type: cell-based; design: expressed in transfected cells; host or cells: LNCaP-AKR1C3; settings: 48 hrs
Protocol: To examine whether compound 1 and compound 2 are useful in inhibiting AKR1C3 activity, LNCaP-AKR1C3 were treated with either compound 1 or compound 2 for 48 hrs. AKR1C3 enzymatic activity was determined by Aldo-Keto Reductase (AKR) Activity Assay Kit (Colorimetric), the results of which are shown in FIG. 2. Similarly, the inhibition of AKR1C3 activity was examined with varying doses of compound 1. LNCaP-AKR1C3 cells were treated with increasing doses of compound 1 for 48 hrs.

[10] = system: MCF-7 breast cancer cells; assay: Cell number of MCF-7 breast cancer cells; assay type: cell-based; settings: 48 hrs
[11] = LuCaP35CR PDX, castrated SCID mice, 20 mg/kg I.P. 5 days a week for 3 weeks

SMILES	expression of AR-V7 signature genes [1]	AR nuclear translocation / DHT-stimulated AR nuclear expression [2]	expression of genes associated with cancer cell proliferation and survival [3]	expression of genes associated with AR signaling (AR activity signature genes) [4]	intratumoral testosterone levels [5, 11]	mouse body weight [5, 11]	serum PSA [5, 11]	tumor volume / tumor growth ([5]; LuCaP35CR PDX, castrated SCID mice, 20 mg/kg I.P. 5 days a week for 3 weeks, 20 mg/kg)	tolerability ([5]; conclusion from VCaP and LuCaP35CR mouse models, 20 mg/kg I.P.)	androstenedione conversion to testosterone [6]	total cell number (cell growth) [7]	total cell number (cell growth), increasing doses ([7]; increasing doses)	serum PSA ([8]; end of treatment)	mouse body weight ([8]; vs control)	tumor volume / tumor growth ([8]; vs control, 20 mg/kg)	AKR1C3 enzymatic activity [9]	AKR1C3 enzymatic activity, increasing doses ([9]; increasing doses)	total cell number (cell growth), increasing doses [10]
COc1ccc(Cc2ccc(O)c(C(=O)Nc3cc(C(F)(F)F)cc(C(F)(F)F)c3)c2)cc1 [compound 5, N-(3,5-bis(trifluoromethyl)phenyl)-2-hydroxy-5-(4-methoxybenzyl)benzamide]	reduced expression of AR-V7 signature genes; also recorded: inhibit AR-V7 activity signature genes	capable of inhibiting DHT-stimulated AR nuclear expression; also recorded: inhibit AR nuclear translocation	greatly reduced expression of genes associated with cancer cell proliferation and survival; also recorded: inhibit genes associated with cancer cell proliferation and survival	greatly reduced expression of genes associated with AR signaling; also recorded: inhibit AR activity signature genes	–	–	–	–	–	–	–	–	–	–	–	–	–	–
COc1ccc(C(=O)c2ccc(O)c(C(=O)Nc3cc(C(F)(F)F)cc(C(F)(F)F)c3)c2)cc1 [compound 8, N-(3,5-Bis(trifluoromethyl)phenyl)-2-hydroxy-5-(4-methoxybenzoyl)benzamide]	–	–	greatly reduced expression of genes associated with cancer cell proliferation and survival; also recorded: inhibit genes associated with cancer cell proliferation and survival	–	–	–	–	–	–	–	–	–	–	–	–	–	–	–
O=C(Nc1cc(C(F)(F)F)cc(C(F)(F)F)c1)c1cc(Cc2ccccc2)ccc1O [compound 1, 5-benzyl-N-(3,5-bis(trifluoromethyl)phenyl)-2-hydroxybenzamide]	reduced expression of AR-V7 signature genes; also recorded: inhibit AR-V7 activity signature genes	capable of inhibiting DHT-stimulated AR nuclear expression; also recorded: inhibit AR nuclear translocation	greatly reduced expression of genes associated with cancer cell proliferation and survival; also recorded: inhibit genes associated with cancer cell proliferation and survival	greatly reduced expression of genes associated with AR signaling; also recorded: inhibit AR activity signature genes	significantly reduced intratumoral testosterone levels	no effect on mouse body weight	reduced	significantly decreased tumor volumes; also recorded: inhibits LuCaP35CR tumor growth	well-tolerated	dose-dependent inhibition; also recorded: inhibits the conversion from androstenedione to testosterone	inhibit cell growth	inhibited in dose-dependent fashion	significantly decreased	no effect on mouse body weight	significantly decreased tumor volume; also recorded: inhibits VCaP tumor growth	inhibit AKR1C3 activity	inhibited in dose-dependent fashion	inhibited in dose dependent fashion
